In ChEMBL document CHEMBL1201862, “PubChem BioAssay data set” (2004):
Activity calls are given as the source filed them.

Experiments:
[1] = A Cell Based Secondary Assay To Explore Cytotoxicity of Compounds that Sensitize Mycobacterium Tuberculosis to Beta-Lactam Antibiotics.; type: functional
[2] = biological target: T1, Sentrin-specific protease 6 (Homo sapiens, UniProt Q9GZR1); type: functional;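 also: Luminescence-based dose-response confirmatory assay of SENP6 inhibition, following up an ultra-high-throughput screen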
T1 sequence (Q9GZR1 whole entry): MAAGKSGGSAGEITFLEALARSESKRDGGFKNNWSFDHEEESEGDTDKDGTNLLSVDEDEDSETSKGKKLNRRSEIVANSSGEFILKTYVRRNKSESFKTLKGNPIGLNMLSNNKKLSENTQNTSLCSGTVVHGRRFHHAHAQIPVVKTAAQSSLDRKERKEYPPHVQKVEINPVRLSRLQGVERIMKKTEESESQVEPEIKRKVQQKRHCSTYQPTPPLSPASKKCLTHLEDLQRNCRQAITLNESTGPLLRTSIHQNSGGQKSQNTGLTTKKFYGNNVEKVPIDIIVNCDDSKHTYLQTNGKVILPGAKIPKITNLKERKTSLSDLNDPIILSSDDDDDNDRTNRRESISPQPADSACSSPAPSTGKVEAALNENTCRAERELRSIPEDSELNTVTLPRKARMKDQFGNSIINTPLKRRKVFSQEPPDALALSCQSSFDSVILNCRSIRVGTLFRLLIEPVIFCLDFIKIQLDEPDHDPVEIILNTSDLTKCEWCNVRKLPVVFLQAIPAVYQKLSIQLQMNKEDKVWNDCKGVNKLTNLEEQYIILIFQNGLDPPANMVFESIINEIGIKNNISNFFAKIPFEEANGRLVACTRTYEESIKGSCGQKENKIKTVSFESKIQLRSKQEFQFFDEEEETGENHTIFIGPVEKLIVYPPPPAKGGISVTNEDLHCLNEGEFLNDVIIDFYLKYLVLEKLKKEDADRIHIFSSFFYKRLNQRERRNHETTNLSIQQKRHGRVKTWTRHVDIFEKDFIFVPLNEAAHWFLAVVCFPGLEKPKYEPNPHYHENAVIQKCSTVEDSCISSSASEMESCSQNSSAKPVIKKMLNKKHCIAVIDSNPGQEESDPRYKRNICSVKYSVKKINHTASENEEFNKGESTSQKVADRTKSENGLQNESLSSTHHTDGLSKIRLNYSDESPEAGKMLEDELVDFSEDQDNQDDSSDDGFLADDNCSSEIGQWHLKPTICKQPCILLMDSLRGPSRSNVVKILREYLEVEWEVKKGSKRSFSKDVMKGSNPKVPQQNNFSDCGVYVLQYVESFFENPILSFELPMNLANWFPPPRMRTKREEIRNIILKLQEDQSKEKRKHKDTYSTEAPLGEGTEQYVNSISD

Caspase-3 = biological target: T2, Caspase-3 (Homo sapiens, UniProt P42574); type: functional;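 also: Dose-response selectivity test against caspase-3 for candidate inhibitors of sentrin-specific proteases (SENPs)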
T2 sequence (P42574 whole entry): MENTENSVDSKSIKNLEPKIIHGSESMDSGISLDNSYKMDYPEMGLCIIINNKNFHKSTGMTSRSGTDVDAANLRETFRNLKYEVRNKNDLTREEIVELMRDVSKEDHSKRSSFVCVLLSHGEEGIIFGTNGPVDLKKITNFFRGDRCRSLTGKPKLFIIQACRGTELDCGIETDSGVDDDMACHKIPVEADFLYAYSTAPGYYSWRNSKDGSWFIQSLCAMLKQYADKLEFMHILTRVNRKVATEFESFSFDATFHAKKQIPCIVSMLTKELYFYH

Prothrombin = Prothrombin (Homo sapiens, UniProt P00734); assay: Thrombin 1536 HTS Dose Response Confirmation. [Related pubchem assays: 1046 (Thrombin 1536 HTS; hits were confirmed in this assay)]; type: functional
[3] = biological target: T3, Sentrin-specific protease 8 (Homo sapiens, UniProt Q96LD8); type: functional;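 also: luminescence read-out of SENP8 inhibition, dose-response confirmation following an ultra-high-throughput screen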
T3 sequence (Q96LD8 whole entry): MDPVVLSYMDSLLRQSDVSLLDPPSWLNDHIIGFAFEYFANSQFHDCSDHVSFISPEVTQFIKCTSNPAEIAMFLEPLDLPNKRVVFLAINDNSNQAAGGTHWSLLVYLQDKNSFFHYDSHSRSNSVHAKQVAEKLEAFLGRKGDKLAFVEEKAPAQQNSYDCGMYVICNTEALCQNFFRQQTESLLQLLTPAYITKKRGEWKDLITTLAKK

[4] = biological target: T4, Sentrin-specific protease 7 (Homo sapiens, UniProt Q9BQF6); type: functional;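 also: Luminescence-based dose-response confirmation of ultra-high-throughput screening hits, measuring inhibition of SENP7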
T4 sequence (Q9BQF6 whole entry): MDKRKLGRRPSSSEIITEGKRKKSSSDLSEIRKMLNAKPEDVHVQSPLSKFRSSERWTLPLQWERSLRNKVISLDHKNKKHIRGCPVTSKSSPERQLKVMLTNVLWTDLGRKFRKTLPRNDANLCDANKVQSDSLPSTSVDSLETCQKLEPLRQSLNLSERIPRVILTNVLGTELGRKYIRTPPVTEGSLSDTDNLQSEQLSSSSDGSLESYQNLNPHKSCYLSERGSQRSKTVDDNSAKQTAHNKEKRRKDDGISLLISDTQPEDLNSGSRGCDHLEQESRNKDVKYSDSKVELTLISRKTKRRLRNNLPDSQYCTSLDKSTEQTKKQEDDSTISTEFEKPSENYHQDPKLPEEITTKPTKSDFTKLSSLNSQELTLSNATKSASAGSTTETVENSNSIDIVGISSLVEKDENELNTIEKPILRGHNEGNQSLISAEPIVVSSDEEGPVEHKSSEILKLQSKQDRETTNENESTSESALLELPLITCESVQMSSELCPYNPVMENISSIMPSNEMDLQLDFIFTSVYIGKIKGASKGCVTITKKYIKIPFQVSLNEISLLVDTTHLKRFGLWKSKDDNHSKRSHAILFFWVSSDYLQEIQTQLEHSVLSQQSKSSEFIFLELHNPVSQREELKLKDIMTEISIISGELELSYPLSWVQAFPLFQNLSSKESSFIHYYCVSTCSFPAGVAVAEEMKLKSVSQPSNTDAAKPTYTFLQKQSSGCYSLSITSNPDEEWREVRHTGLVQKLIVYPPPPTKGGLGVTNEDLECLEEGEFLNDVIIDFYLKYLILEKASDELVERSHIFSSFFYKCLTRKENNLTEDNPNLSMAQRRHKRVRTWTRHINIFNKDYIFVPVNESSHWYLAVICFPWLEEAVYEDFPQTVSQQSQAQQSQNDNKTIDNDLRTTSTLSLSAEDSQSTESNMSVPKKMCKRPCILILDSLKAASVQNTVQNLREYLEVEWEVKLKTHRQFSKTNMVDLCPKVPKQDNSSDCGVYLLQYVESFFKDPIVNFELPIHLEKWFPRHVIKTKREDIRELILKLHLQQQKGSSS

Mucolipin-3 = biological target: T5, Mucolipin-3 (Homo sapiens, UniProt Q8TDD5); assay: Dose response cell-based high-throughput screening assay for agonists of the transient receptor potential channel ML3 (TRPML3). [Related pubchem assays: 1526, 1424, 1448 ]; type: functional
T5 sequence (Q8TDD5 whole entry): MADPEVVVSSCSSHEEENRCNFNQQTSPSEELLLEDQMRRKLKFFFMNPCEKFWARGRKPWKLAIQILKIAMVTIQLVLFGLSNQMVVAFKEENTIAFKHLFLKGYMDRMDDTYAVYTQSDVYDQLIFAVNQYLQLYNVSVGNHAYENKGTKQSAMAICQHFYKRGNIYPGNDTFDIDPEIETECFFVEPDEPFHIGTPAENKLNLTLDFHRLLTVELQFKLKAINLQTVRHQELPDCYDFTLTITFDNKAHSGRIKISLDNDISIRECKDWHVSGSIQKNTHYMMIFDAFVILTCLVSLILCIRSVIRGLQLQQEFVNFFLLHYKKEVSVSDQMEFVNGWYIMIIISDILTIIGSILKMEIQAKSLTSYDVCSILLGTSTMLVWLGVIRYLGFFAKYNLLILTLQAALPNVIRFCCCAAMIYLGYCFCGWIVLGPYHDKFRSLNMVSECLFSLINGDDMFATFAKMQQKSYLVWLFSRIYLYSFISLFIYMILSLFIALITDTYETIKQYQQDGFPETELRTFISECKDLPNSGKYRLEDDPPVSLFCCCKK

Ion channel NompC = Ion channel NompC (Danio rerio, UniProt Q7T1G6); assay: Fluorescence counterscreen assay for TRPML3 agonists: dose response cell-based high-throughput screening assay to identify agonists of the transient receptor potential channel N1 (TRPN1). [Related pubchem assays: 1526, 1424, 1448 ]; type: functional
[5] = Luminescence Cell-Based Dose Response HTS to Identify Inhibitors of 5'UTR Stem-Loop Driven Prion Protein mRNA Translation in H4 Neuroglioblastoma Cells. [Related pubchem assays: 1827 (Project Summary), 1813 (Primary HTS)]; type: functional
[6] = cytotoxicity in HEK-293T cells, dose response, cytotoxicity control for TCR NF-kB inhibitor project, luminescence, T-cell screen hits (AID 489026); type: functional, cell-based;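 also: cells exposed to compound about 14 hours before the viability readout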
[7] = inhibitors of firefly luciferase expression or activity, dose response, H4 neuroglioma cells, luminescence (AID 1990); type: functional, cell-based
[8] = luciferase reporter signal reduction – luminescence, H4-C neuroglioblastoma cells, dose response (AID 2458); type: functional, cell-based;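 also: H4 neuroglioblastoma cells stably carrying a luciferase reporter gene fusion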
BJ [9] = assay: cytotoxicity toward BJ-TERT-LT-ST fibroblasts, dose response, cell-based, RAS-independent, luminescence (AID 1935); type: functional; conditions: Homo sapiens;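 also: BJ fibroblasts immortalized with TERT plus LT and ST oncogenes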
[10] = inhibitors of SNCA 5'UTR-driven reporter translation, confirmation, H4 neuroglioma cells, luminescence (AID 1988); type: functional, cell-based
BJ [11] = assay: cells; type: functional, cell-based; conditions: Homo sapiens
[12] = cytotoxicity toward DRD oncogenic fibroblasts, dose response, cell-based, non-viral oncogenic, luminescence (AID 1934); type: functional; conditions: Homo sapiens
BJ [13] = assay: cytotoxicity toward BJ-TERT fibroblasts, dose response, cell-based, RAS-independent, luminescence (AID 1933); type: functional; conditions: Homo sapiens
[14] = inhibitors of SNCA 5'UTR-driven translation, confirmation, luminescence, H4 neuroglioblastoma cells, dose confirmation (AID 2454); type: functional, cell-based;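 also: H4 neuroglioblastoma cells carrying an alpha-synuclein 5'UTR luciferase reporter; potency for inhibition of the luciferase signal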
cells = type: functional, cell-based
[15] = biological target: Glyceraldehyde-3-phosphate dehydrogenase (Homo sapiens, UniProt P04406)
Chain of Glyceraldehyde-3-phosphate dehydrogenase (P04406 whole entry): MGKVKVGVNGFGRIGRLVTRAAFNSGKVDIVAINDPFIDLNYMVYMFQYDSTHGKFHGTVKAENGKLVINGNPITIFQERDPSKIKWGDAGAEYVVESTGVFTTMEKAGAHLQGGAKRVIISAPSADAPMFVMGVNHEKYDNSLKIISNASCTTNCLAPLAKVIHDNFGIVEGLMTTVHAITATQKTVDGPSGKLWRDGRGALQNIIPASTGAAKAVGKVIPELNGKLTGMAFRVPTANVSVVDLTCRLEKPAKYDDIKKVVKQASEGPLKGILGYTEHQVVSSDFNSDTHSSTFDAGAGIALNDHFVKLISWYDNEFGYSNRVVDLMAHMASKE

Chain of Ion channel NompC (Q7T1G6 whole entry): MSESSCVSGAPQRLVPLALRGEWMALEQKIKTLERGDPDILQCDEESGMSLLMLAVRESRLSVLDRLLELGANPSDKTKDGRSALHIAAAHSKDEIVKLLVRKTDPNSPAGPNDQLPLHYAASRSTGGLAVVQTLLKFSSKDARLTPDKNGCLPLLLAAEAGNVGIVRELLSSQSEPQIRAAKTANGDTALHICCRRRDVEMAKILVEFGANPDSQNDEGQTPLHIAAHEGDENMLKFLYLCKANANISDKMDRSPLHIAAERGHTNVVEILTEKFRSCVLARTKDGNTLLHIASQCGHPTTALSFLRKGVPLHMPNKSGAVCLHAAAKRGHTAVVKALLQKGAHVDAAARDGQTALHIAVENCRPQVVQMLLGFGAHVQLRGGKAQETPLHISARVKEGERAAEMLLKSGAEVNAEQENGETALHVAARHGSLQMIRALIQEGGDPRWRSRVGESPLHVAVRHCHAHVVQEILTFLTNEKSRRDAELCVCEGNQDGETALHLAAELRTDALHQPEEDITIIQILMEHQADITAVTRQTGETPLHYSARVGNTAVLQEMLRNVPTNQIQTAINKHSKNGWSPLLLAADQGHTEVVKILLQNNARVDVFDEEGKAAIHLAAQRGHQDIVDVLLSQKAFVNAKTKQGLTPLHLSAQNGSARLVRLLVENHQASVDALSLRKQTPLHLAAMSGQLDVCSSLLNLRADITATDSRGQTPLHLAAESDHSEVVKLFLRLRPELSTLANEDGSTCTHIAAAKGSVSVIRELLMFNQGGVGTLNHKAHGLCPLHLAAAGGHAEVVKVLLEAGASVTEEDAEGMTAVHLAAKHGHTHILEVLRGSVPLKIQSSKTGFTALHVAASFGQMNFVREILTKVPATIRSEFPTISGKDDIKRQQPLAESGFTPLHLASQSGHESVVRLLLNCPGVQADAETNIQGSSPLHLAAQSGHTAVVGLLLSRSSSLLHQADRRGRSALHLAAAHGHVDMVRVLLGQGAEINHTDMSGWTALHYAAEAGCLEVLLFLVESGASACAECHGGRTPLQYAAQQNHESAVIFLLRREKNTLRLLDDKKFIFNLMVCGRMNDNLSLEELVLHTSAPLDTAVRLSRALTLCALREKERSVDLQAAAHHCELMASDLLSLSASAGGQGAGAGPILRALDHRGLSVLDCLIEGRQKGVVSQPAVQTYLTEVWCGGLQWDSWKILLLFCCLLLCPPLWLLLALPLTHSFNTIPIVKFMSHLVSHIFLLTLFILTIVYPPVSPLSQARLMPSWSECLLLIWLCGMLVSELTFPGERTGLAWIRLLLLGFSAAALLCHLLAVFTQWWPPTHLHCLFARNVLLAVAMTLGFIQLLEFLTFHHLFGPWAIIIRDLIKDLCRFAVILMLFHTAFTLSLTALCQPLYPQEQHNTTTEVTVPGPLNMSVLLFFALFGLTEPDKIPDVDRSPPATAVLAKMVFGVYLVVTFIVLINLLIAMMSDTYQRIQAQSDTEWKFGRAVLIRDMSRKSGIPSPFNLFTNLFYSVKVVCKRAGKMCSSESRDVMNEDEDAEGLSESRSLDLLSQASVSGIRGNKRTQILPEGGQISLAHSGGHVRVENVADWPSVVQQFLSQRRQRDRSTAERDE

O=c1[nH]c(/C=C/c2cccc(Br)c2)nc2ccccc12
CC50 [1]: 33.4 µM (active)

Cc1cccc(C(=O)Nc2sc(C)c(-c3ccccc3)c2C#N)c1
IC50 [2]: > 100 µM (inactive) | IC50 (Caspase-3): 38.5 µM (active) | IC50 (Prothrombin): > 50 µM (not active) | IC50 [3]: > 100 µM (inactive) | IC50 [4]: 7.15 µM (active)

CCC(Oc1cc(Cl)ccc1Cl)C(=O)NN1C(=O)C2C3CCC(C3=C(C)C)C2C1=O (stereo unspecified)
EC50 (Mucolipin-3): 3.99 µM (active) | EC50 (Ion channel NompC): 23.7 µM (not active)

C=CCOC(=O)c1[nH]c2c(c1C)C(=O)CC(c1ccco1)C2 (stereo unspecified)
EC50 [5]: 0.19 µM (active) | IC50 [6]: > 80 µM (inactive) | EC50 [7]: 0.257 µM (active) | EC50 [8]: 0.598 µM (active) | EC50 (BJ [9]): 0.346 µM (inconclusive) | EC50 [10]: < 0.1 µM (active) | EC50 (BJ [11]): 29.1 µM (inconclusive) | EC50 [12]: 0.374 µM (active) | EC50 (BJ [13]): 0.377 µM (inconclusive) | EC50 [14]: 0.822 µM (active) | EC50 (cells): 1.29 µM (active)

CCN(C1CCCCC1)S(=O)(=O)c1cc(C)ccc1OC
EC50 (Mucolipin-3): 3.39 µM (active) | EC50 (Ion channel NompC): > 29.9 µM (not active)

CCCC(=O)Oc1c(S(=O)(=O)c2ccc(C)cc2)c(C)nn1C(C)(C)C
EC50 (Mucolipin-3): 2.31 µM (active) | EC50 (Ion channel NompC): > 29.9 µM (not active)

CN(C)S(=O)(=O)N1CCN(c2cc(Cl)ccc2Cl)CC1
EC50 (Mucolipin-3): 26.5 µM (not active) | EC50 (Ion channel NompC): > 29.9 µM (not active)

Cc1cccc(N2C(=O)C(Cl)=C(N3CCN(Cc4ccccc4)CC3)C2=O)c1
IC50 [15]: > 50 µM (inconclusive)
